According to PMC11767950, “Human Serum Albumin and Human Serum Albumin Nanoparticles as Carriers of 10-(2′-Pyrimidyl)-3,6-diazaphenothiazine: In Vitro Spectroscopic Studies” (Molecules, 2025):

Molecular target: T1, Human serum albumin (HSA) (Homo sapiens, UniProt P02768)
T1 construct: gene ALB
Assay: intrinsic fluorescence quenching (Stern-Volmer, Klotz Ka), dansyl amino acid marker displacement, far UV-CD
Assay type: binding
Conditions: read-out: λex 275 nm / Ka [mol^-1.L] ± SD ^1

T1 sequence (P02768 25-609): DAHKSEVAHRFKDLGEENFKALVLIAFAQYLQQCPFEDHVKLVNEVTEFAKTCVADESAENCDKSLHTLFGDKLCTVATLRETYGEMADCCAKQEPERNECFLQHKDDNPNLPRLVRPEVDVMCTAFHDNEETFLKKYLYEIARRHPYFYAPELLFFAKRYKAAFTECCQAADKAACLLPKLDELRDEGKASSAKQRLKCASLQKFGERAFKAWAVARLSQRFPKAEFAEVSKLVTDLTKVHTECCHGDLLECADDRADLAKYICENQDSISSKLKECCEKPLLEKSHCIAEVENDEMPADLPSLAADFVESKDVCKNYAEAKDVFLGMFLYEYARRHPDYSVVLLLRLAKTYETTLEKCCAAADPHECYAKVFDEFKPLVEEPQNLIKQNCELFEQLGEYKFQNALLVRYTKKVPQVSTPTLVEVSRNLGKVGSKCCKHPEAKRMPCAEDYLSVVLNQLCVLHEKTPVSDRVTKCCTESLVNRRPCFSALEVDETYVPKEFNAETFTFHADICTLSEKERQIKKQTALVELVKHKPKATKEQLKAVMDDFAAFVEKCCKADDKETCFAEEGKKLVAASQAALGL

Kd: 19.1 µM
SMILES: c1cnc(N2c3ccncc3Sc3ncccc32)nc1 [10-Pyr-3,6-DAPT, 10-(2′-pyrimidyl)-3,6-diazaphenothiazine]
